Earlier results on 1 substance are cited in US20130129859A1, “DOSING PROTOCOLS FOR INCREASING PROTEIN SYNTHESIS IN AN ACTIVE INDIVIDUAL” (priority 2009, published 2013).

As for casein, the Whole-body protein synthesis entry (previously discussed study) was “best with casein”. Moreover, under “young, healthy subjects”, the “Leucine balance, slow versus fast protein meal matched for leucine content” value is “higher leucine balance”.
